IC50 and Ki data for 15 molecules are collected here from ChEMBL document CHEMBL1909046, “DrugMatrix in vitro pharmacology data”.

For series [1], the target named is T1, 5-hydroxytryptamine receptor 1A (Rattus norvegicus, UniProt P19327). Note: in other assays of this panel Not Active means under 50% inhibition at 10 µM.
T1 sequence (P19327 whole entry): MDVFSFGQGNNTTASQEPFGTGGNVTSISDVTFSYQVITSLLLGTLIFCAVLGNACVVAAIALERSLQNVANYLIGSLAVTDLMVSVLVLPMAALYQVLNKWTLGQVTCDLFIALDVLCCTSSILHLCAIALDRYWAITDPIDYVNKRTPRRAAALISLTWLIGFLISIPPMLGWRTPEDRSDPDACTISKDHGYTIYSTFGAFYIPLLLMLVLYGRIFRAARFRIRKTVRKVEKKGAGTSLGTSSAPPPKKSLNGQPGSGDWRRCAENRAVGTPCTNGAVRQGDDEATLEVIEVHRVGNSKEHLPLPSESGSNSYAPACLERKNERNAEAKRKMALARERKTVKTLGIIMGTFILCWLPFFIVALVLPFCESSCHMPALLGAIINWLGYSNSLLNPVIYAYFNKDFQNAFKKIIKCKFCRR
Type of series: cell membranes, CHO-K1, Membrane. The note with it: cho-k1.

The target of the next series is Cytochrome P450 2D6 (Homo sapiens, UniProt P10635). The note with it: bti-tn-5b1-4. Note: in other assays of this panel Not Active means under 50% inhibition at 10 µM.
Cytochrome P450 2D6, sequence (P10635 whole entry): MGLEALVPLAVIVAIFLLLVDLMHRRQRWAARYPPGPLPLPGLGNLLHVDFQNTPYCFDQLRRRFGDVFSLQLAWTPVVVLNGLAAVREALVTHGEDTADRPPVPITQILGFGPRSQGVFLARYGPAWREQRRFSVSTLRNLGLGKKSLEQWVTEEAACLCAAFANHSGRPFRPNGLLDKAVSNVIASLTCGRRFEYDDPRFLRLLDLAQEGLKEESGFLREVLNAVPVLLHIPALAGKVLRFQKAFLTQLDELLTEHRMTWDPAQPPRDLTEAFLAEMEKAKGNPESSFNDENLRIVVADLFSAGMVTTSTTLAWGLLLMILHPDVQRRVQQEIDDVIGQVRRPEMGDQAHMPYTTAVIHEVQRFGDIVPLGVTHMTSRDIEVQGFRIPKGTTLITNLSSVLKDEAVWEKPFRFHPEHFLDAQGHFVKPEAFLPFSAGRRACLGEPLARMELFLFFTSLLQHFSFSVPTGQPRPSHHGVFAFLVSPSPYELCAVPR
The target of series [2] is Tyrosine-protein kinase Lck (Homo sapiens, UniProt P06239). Description: DRUGMATRIX: Protein Tyrosine Kinase, LCK enzyme inhibition (substrate: Poly(Glu:Tyr)). The note with it: insect cells; Not Active = under 50% inhibition at 10 µM. Type of series: cell-based, Insect cells.
Tyrosine-protein kinase Lck, sequence (P06239 whole entry): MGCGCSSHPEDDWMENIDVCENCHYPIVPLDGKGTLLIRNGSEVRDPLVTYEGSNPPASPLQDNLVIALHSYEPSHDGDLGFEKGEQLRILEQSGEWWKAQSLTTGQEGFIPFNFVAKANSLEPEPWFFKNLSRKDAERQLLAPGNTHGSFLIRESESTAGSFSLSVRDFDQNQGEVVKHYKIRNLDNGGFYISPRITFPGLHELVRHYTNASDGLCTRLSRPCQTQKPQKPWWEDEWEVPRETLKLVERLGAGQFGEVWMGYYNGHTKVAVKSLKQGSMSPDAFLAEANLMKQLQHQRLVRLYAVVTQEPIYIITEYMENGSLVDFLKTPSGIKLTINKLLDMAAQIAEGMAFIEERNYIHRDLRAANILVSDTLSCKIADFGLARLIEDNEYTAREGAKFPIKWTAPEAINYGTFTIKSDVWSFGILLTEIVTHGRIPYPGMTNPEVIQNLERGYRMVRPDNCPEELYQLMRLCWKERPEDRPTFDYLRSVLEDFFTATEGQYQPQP
For series [3], the target named is cGMP-specific 3',5'-cyclic phosphodiesterase (Homo sapiens, UniProt O76074). The experiment in a line: DRUGMATRIX: Phosphodiesterase PDE5 enzyme inhibition (substrate: [3H]cGMP + cGMP). Type of series: tissue-based, Platelet. The note with it: platelet; Not Active = under 50% inhibition at 10 µM.
The next series has as its target Melanocortin receptor 4 (Homo sapiens, UniProt P32245). Type of series: cell membranes, Membrane. The note with it: hek293. Note: in other assays of this panel Not Active means under 50% inhibition at 10 µM.
A further series has as its target T2, Calcitonin receptor (Homo sapiens, UniProt P30988). Note: in other assays of this panel Not Active means under 50% inhibition at 10 µM.
T2 sequence (P30988 whole entry): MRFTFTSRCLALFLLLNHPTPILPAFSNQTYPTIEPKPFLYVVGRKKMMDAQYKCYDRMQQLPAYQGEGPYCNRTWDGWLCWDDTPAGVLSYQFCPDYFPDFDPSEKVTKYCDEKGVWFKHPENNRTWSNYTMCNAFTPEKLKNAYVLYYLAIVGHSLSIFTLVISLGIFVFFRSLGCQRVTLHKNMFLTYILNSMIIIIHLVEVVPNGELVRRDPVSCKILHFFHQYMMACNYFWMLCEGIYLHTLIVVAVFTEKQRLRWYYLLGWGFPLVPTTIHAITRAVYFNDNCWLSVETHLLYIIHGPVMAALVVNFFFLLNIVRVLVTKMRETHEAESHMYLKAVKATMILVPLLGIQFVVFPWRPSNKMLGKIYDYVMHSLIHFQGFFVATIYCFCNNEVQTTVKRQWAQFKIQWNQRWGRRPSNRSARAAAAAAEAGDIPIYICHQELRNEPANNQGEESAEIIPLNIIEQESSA
Type of series: cell membranes, Membrane. The note with it: t47d.

The next series deals with Vasopressin V1a receptor (Homo sapiens, UniProt P37288). Type of series: cell membranes, Membrane. The note with it: hek293.
Vasopressin V1a receptor, sequence (P37288 whole entry): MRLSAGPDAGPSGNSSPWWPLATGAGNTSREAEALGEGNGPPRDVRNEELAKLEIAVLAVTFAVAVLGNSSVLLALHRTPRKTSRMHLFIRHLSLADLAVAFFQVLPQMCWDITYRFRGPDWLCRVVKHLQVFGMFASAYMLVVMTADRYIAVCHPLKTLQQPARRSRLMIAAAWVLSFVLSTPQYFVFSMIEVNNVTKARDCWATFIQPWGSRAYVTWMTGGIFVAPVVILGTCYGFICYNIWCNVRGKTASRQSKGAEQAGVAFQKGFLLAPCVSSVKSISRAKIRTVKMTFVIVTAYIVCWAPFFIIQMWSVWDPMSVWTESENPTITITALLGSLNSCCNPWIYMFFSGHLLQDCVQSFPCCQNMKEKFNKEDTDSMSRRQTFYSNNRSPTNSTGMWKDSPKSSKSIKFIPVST
Series [4] can be described thus: DRUGMATRIX: Serotonin (5-Hydroxytryptamine) 5-HT3 radioligand binding (ligand: [3H] GR-65630). Type of series: cell membranes, Membrane. The note with it: hek293, Not Active = under 50% inhibition at 10 µM.

SMILES strings stand for the structures. pIC50, pKi: −log10 of the molar value. Where a SMILES comes first, the peptide text is derived from it. Bridges are numbered along the chain shown (N, C = ends). [ ]: non-standard residue; d: D form. The star is where a group is joined. Ileψ(thiazoline)Cys = CC[C@H](C)[C@H](N)C1=N[C@H](C(=O)*)CS1; dOrn = NCCC[C@@H](N)C(=O)O

Melanocortin receptor 4, sequence (P32245 whole entry): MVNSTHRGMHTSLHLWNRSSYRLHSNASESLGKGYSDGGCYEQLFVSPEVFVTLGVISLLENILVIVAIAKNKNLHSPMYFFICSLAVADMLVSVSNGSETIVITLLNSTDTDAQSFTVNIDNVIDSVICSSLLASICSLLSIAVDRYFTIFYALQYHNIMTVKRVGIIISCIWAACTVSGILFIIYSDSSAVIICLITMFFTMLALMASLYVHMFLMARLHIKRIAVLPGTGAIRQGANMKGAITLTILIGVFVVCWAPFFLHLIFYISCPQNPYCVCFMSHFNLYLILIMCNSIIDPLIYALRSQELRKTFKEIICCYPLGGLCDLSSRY

`c1ccc2c(c1)cc1ccc3cccc4ccc2c1c34`: the IC50 entry (in series [1]; against Cytochrome P450 2D6; in series [2]; in series [3]; on Melanocortin receptor 4; at Calcitonin receptor) was “Not Active” in each case. The IC50 entry (against Vasopressin V1a receptor; in series [4]) was “Not Active” in each case. In addition, the Ki result (on Cytochrome P450 2D6; in series [4]) was “Not Active” throughout.
Turning to `CC=CC(=O)N(CC)c1ccccc1C`, the IC50 entry (in series [1]; against Cytochrome P450 2D6; in series [2]; in series [3]; at Melanocortin receptor 4; at Calcitonin receptor) was “Not Active” throughout. The IC50 entry (against Vasopressin V1a receptor; in series [4]) was “Not Active” throughout. Further, the Ki result (at Cytochrome P450 2D6; in series [4]) was “Not Active” in each case.
With `CC(/C=C1\SC(=S)N(CC(=O)O)C1=O)=C\c1ccccc1`, the IC50 entry (in series [1]; at Cytochrome P450 2D6; in series [2]; in series [3]; against Melanocortin receptor 4; on Calcitonin receptor) was “Not Active” in each case. Besides, the IC50 result (against Vasopressin V1a receptor; in series [4]) was “Not Active” in each case. Moreover, the Ki result (on Cytochrome P450 2D6; in series [4]) was “Not Active” in each case.
`CCCCCCCCCc1ccc(O)cc1` [4-NONYLPHENOL]: the IC50 result (in series [1]; on Cytochrome P450 2D6; in series [2]; in series [3]; against Melanocortin receptor 4; at Calcitonin receptor) was “Not Active” in each case. Besides, the IC50 entry (against Vasopressin V1a receptor; in series [4]) was “Not Active” each time. In addition, the Ki result (at Cytochrome P450 2D6; in series [4]) was “Not Active” in each case.
On to `CCCSc1ccc2nc(NC(=O)OC)[nH]c2c1` [ALBENDAZOLE], for which the IC50 entry (in series [1]; at Cytochrome P450 2D6; in series [2]; in series [3]; against Melanocortin receptor 4; at Calcitonin receptor) was “Not Active” each time. The IC50 entry (against Vasopressin V1a receptor; in series [4]) was “Not Active” throughout. Moreover, the Ki entry (on Cytochrome P450 2D6; in series [4]) was “Not Active” throughout.
With `Cc1[nH]cnc1CN1CCc2c(c3ccccc3n2C)C1=O` [ALOSETRON], the IC50 result (in series [1]; against Cytochrome P450 2D6; in series [2]; in series [3]; against Melanocortin receptor 4; at Calcitonin receptor) was “Not Active” in each case. In addition, at Vasopressin V1a receptor, the IC50 entry was “Not Active”. Moreover, the Ki entry at Cytochrome P450 2D6 is “Not Active”. Also, the pIC50 in series [4] (read-out: IC50) is 8.93. In addition, the pKi in series [4] (read-out: Ki) was 9.58.
Consider `CCOC(=O)OC(C)OC1=C(C(=O)Nc2ccccn2)N(C)S(=O)(=O)c2ccccc21` (centres undefined) [AMPIROXICAM], for which the IC50 entry (in series [1]; at Cytochrome P450 2D6; in series [2]; in series [3]; at Melanocortin receptor 4; at Calcitonin receptor) was “Not Active” each time. The IC50 entry (against Vasopressin V1a receptor; in series [4]) was “Not Active” each time. In addition, the Ki entry (on Cytochrome P450 2D6; in series [4]) was “Not Active” throughout.
`N=C(N)NCCCCNC(=N)N.O=S(=O)(O)O` [ARCAINE SULFATE]: the IC50 result (in series [1]; against Cytochrome P450 2D6; in series [2]; in series [3]; against Melanocortin receptor 4; at Calcitonin receptor) was “Not Active” in each case. Also, the IC50 entry (on Vasopressin V1a receptor; in series [4]) was “Not Active” throughout. Further, the Ki result (at Cytochrome P450 2D6; in series [4]) was “Not Active” in each case.
As for `Cn1cnc([N+](=O)[O-])c1Sc1ncnc2nc[nH]c12` [AZATHIOPRINE], the IC50 entry (in series [1]; on Cytochrome P450 2D6; in series [2]; in series [3]; on Melanocortin receptor 4; on Calcitonin receptor) was “Not Active” each time. Moreover, the IC50 entry (on Vasopressin V1a receptor; in series [4]) was “Not Active” throughout. The Ki entry (on Cytochrome P450 2D6; in series [4]) was “Not Active” throughout.
As to `CC[C@H](C)[C@H](N)C1=N[C@H](C(=O)N[C@@H](CC(C)C)C(=O)N[C@H](CCC(=O)O)C(=O)N[C@H](C(=O)N[C@H]2CCCCNC(=O)[C@H](CC(N)=O)NC(=O)[C@@H](CC(=O)O)NC(=O)[C@H](Cc3cnc[nH]3)NC(=O)[C@@H](Cc3ccccc3)NC(=O)[C@H]([C@@H](C)CC)NC(=O)[C@@H](CCCN)NC2=O)[C@@H](C)CC)CS1` [BACITRACIN] ({Ileψ(thiazoline)Cys}-L[dE]IK[dOrn]I[dF]H[dD]N; lactam 4-C), the IC50 result (in series [1]; at Cytochrome P450 2D6; in series [3]; at Melanocortin receptor 4; on Calcitonin receptor; against Vasopressin V1a receptor) was “Not Active” throughout. Moreover, the IC50 result in series [4] is given as “Not Active”. The Ki result (at Cytochrome P450 2D6; in series [4]) was “Not Active” throughout.
With `CCCCOC(=O)c1ccc(N)cc1` [BUTAMBEN], the IC50 entry (in series [1]; in series [2]; in series [3]; against Melanocortin receptor 4; at Calcitonin receptor; at Vasopressin V1a receptor) was “Not Active” throughout. Further, in series [4], the IC50 result is recorded as “Not Active”. Besides, the Ki entry in series [4] is recorded as “Not Active”.
For `O=C(O)c1cn(C2CC2)c2cc(N3CCNCC3)c(F)cc2c1=O` [CIPROFLOXACIN], the IC50 result (in series [1]; in series [2]; in series [3]; at Melanocortin receptor 4; on Calcitonin receptor; on Vasopressin V1a receptor) was “Not Active” each time. Further, the IC50 entry in series [4] was “Not Active”. In series [4], the Ki result is listed as “Not Active”.
Consider `O=C1OCCN1/N=C/c1ccc([N+](=O)[O-])o1` [FURAZOLIDONE], for which the IC50 result (in series [1]; in series [2]; in series [3]; against Melanocortin receptor 4; on Calcitonin receptor; at Vasopressin V1a receptor) was “Not Active” throughout. Moreover, the IC50 result in series [4] is reported as “Not Active”. For the same molecule, the Ki entry in series [4] is recorded as “Not Active”.
As to `NCC(=O)O` [GLYCINE], the IC50 entry (in series [1]; in series [2]; in series [3]; at Melanocortin receptor 4; on Calcitonin receptor; on Vasopressin V1a receptor) was “Not Active” throughout. The IC50 result in series [4] was “Not Active”. For the same molecule, the Ki result in series [4] is reported as “Not Active”.
On to `O=P1(NCCCl)OCCCN1CCCl` (centres undefined) [IFOSFAMIDE], for which the IC50 result (in series [1]; in series [2]; in series [3]; at Melanocortin receptor 4; on Calcitonin receptor; against Vasopressin V1a receptor) was “Not Active” throughout. Besides, in series [4], the IC50 result is reported as “Not Active”. The Ki result in series [4] is “Not Active”.
